Assay results as given in ChEMBL document CHEMBL2429832, “N-substituted 8-aminopentacyclo[5.4.0.0(2,6).0(3,10).0(5,9)]undecanes as σ receptor ligands with potential neuroprotective effects” (Bioorg Med Chem, 2013).
pKi: −log10 of the molar value.

Key:
[1] = molecular target: D(2) dopamine receptor (Homo sapiens, UniProt P14416); experiment: Inhibition of dopamine D2 receptor (unknown origin) at 10 uM by PDSP assay relative to control
[2] = molecular target: T1, D(3) dopamine receptor (Homo sapiens, UniProt P35462); experiment: Inhibition of dopamine D3 receptor (unknown origin) at 10 uM by PDSP assay relative to control
T1 sequence (P35462 whole entry): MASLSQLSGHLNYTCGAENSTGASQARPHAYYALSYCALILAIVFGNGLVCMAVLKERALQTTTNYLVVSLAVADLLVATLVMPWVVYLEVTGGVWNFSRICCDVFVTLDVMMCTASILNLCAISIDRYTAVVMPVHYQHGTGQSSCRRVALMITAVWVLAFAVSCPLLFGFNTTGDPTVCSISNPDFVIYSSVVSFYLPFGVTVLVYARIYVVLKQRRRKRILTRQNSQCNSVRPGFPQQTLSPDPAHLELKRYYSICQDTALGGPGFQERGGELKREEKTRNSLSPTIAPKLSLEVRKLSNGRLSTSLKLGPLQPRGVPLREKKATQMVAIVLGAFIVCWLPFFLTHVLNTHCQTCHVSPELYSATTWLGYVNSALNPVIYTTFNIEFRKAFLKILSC

[3] = molecular target: T2, Alpha-2A adrenergic receptor (Homo sapiens) (UniProt P08913); experiment: Inhibition of adrenergic alpha2A receptor (unknown origin) at 10 uM by PDSP assay relative to control
T2 sequence (whole entry): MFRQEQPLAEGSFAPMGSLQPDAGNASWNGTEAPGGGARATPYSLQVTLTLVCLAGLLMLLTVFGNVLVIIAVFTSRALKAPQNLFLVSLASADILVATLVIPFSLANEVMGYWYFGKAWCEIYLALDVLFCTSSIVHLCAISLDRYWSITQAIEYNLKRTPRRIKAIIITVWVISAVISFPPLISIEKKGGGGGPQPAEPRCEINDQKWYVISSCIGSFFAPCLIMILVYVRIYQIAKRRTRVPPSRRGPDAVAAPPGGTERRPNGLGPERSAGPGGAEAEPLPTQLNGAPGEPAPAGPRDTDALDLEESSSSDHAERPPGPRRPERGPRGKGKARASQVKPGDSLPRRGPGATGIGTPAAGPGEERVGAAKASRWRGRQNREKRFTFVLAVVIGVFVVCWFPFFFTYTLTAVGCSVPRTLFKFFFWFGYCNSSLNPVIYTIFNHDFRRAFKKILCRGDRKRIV

[4] = molecular target: Sodium-dependent dopamine transporter (Homo sapiens, UniProt Q01959); experiment: Displacement of [3H]-WIN-35,428 from human DAT expressed in HEK cell membranes; design: species or system HEK293
Sequence of Sodium-dependent dopamine transporter (Q01959 whole entry): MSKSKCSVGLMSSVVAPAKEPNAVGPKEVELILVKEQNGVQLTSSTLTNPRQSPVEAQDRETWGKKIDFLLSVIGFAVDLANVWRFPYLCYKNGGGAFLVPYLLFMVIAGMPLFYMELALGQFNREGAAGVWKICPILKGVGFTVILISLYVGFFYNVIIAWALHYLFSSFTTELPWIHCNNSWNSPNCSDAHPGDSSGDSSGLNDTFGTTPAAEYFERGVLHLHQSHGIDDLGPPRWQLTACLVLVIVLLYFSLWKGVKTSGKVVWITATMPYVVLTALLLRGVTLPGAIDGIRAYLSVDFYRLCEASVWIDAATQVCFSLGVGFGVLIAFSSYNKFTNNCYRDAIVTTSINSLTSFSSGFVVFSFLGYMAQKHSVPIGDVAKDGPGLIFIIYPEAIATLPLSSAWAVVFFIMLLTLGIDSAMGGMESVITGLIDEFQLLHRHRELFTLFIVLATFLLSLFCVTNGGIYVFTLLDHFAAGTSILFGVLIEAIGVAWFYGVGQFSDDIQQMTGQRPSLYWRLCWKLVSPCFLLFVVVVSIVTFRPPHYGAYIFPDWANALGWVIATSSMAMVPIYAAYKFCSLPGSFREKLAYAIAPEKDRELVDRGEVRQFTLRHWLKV

[5] = molecular target: T3, Muscarinic acetylcholine receptor M2 (Homo sapiens) (UniProt P08172); experiment: Inhibition of muscarinic M2 receptor (unknown origin) at 10 uM by PDSP assay relative to control
T3 sequence (whole entry): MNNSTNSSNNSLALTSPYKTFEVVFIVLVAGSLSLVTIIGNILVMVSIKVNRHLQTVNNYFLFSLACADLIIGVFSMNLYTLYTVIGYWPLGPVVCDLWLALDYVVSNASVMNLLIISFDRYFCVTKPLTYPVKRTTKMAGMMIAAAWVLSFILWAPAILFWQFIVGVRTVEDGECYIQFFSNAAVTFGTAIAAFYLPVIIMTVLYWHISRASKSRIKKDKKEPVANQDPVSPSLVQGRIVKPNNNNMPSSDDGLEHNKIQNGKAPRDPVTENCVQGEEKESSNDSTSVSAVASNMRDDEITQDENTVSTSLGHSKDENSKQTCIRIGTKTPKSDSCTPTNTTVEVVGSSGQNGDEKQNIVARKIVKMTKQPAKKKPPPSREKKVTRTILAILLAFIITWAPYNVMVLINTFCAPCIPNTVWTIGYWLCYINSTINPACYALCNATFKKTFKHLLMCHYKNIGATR

[6] = molecular target: Histamine H2 receptor (Homo sapiens, UniProt P25021); experiment: Inhibition of histamine H2 receptor (unknown origin) by PDSP assay
Sequence of Histamine H2 receptor (P25021 whole entry): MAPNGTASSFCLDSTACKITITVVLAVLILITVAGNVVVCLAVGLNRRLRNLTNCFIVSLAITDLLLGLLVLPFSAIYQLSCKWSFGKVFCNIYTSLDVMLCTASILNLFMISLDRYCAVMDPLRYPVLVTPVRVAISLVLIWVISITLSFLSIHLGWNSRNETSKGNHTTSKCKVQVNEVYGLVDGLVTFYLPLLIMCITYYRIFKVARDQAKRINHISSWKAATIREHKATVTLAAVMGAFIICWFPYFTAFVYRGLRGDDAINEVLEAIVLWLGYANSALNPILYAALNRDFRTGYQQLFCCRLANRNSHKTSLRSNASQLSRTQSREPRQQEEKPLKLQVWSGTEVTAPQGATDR

[7] = molecular target: Histamine H1 receptor (Homo sapiens, UniProt P35367); experiment: Inhibition of histamine H1 receptor (unknown origin) by PDSP assay
Sequence of Histamine H1 receptor (P35367 whole entry): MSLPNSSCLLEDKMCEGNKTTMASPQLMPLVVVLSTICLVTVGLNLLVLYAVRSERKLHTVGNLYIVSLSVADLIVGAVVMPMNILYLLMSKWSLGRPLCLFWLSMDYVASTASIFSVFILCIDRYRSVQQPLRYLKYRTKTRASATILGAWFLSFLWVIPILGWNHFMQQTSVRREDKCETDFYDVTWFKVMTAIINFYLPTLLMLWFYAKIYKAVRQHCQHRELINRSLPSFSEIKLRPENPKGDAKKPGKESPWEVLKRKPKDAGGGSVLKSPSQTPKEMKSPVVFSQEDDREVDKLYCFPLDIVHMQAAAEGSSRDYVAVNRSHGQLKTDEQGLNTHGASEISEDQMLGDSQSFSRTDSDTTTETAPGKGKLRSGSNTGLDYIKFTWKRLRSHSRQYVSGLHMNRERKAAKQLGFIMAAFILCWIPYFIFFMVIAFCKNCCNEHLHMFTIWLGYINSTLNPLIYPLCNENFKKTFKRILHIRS

[8] = molecular target: T4, Muscarinic acetylcholine receptor M4 (Homo sapiens) (UniProt P08173); experiment: Inhibition of muscarinic M4 receptor (unknown origin) at 10 uM by PDSP assay relative to control
T4 sequence (whole entry): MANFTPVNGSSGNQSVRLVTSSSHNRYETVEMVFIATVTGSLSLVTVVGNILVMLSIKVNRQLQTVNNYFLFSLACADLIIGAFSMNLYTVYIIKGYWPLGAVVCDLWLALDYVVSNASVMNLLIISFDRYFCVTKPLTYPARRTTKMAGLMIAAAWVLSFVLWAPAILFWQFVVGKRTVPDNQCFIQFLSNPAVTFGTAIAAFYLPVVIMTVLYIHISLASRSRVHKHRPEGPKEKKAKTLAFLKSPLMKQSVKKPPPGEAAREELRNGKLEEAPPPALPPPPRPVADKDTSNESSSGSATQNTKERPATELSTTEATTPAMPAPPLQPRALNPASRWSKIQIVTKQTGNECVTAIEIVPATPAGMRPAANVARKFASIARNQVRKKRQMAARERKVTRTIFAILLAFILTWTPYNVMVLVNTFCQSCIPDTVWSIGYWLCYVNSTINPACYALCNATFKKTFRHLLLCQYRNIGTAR

[9] = molecular target: T5, Alpha-2C adrenergic receptor (Homo sapiens) (UniProt P18825); experiment: Inhibition of adrenergic alpha2C receptor (unknown origin) at 10 uM by PDSP assay relative to control
T5 sequence (whole entry): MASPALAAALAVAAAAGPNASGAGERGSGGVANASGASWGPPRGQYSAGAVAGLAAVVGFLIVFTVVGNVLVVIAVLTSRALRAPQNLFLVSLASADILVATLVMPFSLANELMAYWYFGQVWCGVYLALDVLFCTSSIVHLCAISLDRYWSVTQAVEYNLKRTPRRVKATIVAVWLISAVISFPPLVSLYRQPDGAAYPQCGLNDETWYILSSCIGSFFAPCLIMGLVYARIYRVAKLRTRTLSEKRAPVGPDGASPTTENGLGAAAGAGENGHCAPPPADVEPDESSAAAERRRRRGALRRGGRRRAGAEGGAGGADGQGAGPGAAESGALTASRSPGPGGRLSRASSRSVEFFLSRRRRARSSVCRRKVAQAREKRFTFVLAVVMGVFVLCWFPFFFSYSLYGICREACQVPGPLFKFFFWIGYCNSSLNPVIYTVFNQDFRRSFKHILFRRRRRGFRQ

[10] = molecular target: Sodium-dependent serotonin transporter (Homo sapiens, UniProt P31645); experiment: Displacement of [3H]-citalopram from human SERT expressed in HEK cell membranes at 10 uM relative to control; settings: HEK293
Sequence of Sodium-dependent serotonin transporter (P31645 whole entry, looked up): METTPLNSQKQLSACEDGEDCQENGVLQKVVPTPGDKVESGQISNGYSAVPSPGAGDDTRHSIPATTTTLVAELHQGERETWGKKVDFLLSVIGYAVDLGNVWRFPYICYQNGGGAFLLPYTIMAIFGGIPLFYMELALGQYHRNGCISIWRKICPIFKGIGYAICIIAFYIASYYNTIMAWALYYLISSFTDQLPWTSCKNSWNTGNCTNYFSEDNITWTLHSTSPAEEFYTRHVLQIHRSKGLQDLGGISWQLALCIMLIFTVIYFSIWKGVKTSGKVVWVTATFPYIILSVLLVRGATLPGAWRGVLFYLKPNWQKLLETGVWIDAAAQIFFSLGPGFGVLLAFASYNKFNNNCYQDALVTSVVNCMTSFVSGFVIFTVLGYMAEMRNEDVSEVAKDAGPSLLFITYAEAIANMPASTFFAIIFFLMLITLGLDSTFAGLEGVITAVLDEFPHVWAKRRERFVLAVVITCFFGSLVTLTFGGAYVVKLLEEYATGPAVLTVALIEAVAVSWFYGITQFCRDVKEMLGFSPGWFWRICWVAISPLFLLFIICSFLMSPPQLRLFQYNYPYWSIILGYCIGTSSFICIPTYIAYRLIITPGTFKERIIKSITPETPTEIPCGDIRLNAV

[11] = molecular target: Muscarinic acetylcholine receptor M3 (Homo sapiens, UniProt P20309); experiment: Inhibition of muscarinic M3 receptor (unknown origin) by PDSP assay
Sequence of Muscarinic acetylcholine receptor M3 (P20309 whole entry): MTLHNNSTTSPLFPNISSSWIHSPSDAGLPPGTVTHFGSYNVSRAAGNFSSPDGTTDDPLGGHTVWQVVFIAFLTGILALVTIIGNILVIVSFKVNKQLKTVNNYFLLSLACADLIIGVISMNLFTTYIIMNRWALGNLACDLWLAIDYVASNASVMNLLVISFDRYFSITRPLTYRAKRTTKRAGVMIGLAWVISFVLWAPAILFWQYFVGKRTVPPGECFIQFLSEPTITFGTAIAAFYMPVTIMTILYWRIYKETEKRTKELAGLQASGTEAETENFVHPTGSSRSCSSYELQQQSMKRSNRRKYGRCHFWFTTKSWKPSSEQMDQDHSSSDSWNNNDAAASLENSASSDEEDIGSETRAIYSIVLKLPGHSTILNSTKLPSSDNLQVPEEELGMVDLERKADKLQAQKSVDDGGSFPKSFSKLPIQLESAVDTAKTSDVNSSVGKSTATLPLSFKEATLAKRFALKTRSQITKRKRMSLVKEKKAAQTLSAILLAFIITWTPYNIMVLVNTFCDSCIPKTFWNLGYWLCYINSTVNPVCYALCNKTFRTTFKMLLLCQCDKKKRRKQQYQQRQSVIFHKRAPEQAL

[12] = molecular target: T1, D(3) dopamine receptor; experiment: Inhibition of dopamine D3 receptor (unknown origin) by PDSP assay

Sequence of D(2) dopamine receptor (P14416 whole entry): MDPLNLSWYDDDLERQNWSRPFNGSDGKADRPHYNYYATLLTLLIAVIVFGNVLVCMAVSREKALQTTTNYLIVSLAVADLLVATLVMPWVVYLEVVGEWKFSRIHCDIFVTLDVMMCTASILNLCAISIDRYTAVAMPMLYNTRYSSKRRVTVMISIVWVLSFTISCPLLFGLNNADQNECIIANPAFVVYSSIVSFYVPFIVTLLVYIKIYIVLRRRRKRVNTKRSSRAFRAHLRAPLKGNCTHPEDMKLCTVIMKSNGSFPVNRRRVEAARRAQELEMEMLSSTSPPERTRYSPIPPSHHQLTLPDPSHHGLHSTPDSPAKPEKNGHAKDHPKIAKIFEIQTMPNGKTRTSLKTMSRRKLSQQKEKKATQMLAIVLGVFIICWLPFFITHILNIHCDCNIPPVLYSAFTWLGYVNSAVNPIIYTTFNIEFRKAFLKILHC

Row | Compound | inhibition [1] [%] | inhibition [2] [%] | inhibition [3] [%] | pKi [4] | inhibition [5] [%] | pKi [6] | pKi [7] | inhibition [8] [%] | inhibition [9] [%] | inhibition [10] [%] | pKi [11] | pKi [12]
1 | COc1cc(CN(C)[C@H]2C3C4CC5C6C4CC3C6C52)cc(OC)c1OC (stereo not given in full) | < 50 | < 50 | < 50 | < 5.00 | < 50 |  |  |  |  |  |  | 
2 | COc1ccc(CN[C@H]2C3C4CC5C6C4CC3C6C52)cc1OC (stereo not given in full) | < 50 |  |  |  | < 50 | 5.83 | 5.87 | < 50 |  |  |  | 
3 | COc1ccc(CN(C)[C@H]2C3C4CC5C6C4CC3C6C52)cc1OC (stereo not given in full) | < 50 | < 50 | < 50 |  | < 50 | 5.73 |  |  |  | < 50 |  | 
4 | c1ccc(CN[C@H]2C3C4CC5C6C4CC3C6C52)cc1 (stereo not given in full) | < 50 | < 50 | < 50 | 5.46 | < 50 | 5.46 | < 5.00 | < 50 | < 50 | < 50 |  | 
5 | COc1cc(CN[C@H]2C3C4CC5C6C4CC3C6C52)cc(OC)c1OC (stereo not given in full) | < 50 |  | < 50 |  | < 50 | 5.76 | 5.25 | < 50 |  |  |  | 5.98
6 | CN(Cc1ccccc1)[C@H]1C2C3CC4C5C3CC2C5C41 (stereo not given in full) | < 50 | < 50 | < 50 | < 5.00 | < 50 | < 5.00 |  | < 50 | < 50 | < 50 |  | 
7 | CN(CC1CCCCC1)[C@H]1C2C3CC4C5C3CC2C5C41 (stereo not given in full) | < 50 | < 50 | < 50 |  | < 50 |  |  | < 50 | < 50 | < 50 |  | 
8 | CN(CCCc1cccc(F)c1)[C@H]1C2C3CC4C5C3CC2C5C41 (stereo not given in full) | < 50 |  | < 50 |  | < 50 |  |  |  |  | < 50 |  | < 5.00
9 | c1ccc(CCN[C@H]2C3C4CC5C6C4CC3C6C52)nc1 (stereo not given in full) |  |  | < 50 | 5.81 |  |  |  |  |  | < 50 | 5.67 | 
10 | C1CCC(CN[C@H]2C3C4CC5C6C4CC3C6C52)CC1 (stereo not given in full) | < 50 |  | < 50 |  |  |  |  |  |  | < 50 |  | < 5.00
11 | c1cc2c(cc1CN[C@H]1C3C4CC5C6C4CC3C6C51)OCO2 (stereo not given in full) | < 50 |  | < 50 |  |  | 5.94 | 5.38 |  |  |  |  | 5.57
12 | CN(CCc1ccccc1)[C@H]1C2C3CC4C5C3CC2C5C41 (stereo not given in full) |  |  | < 50 |  | < 50 | 5.52 |  | < 50 |  | < 50 |  | < 5.00
13 | CN(Cc1ccc2c(c1)OCO2)[C@H]1C2C3CC4C5C3CC2C5C41 (stereo not given in full) | < 50 | < 50 | < 50 |  | < 50 | 5.07 |  | < 50 | < 50 |  |  | 
14 | c1ccc(CCN[C@H]2C3C4CC5C6C4CC3C6C52)cc1 (stereo not given in full) |  |  |  | 5.70 |  | 5.41 |  |  |  | < 50 | 5.67 | 5.06
15 | CN(CCc1ccccn1)[C@H]1C2C3CC4C5C3CC2C5C41 (stereo not given in full) | < 50 | < 50 | < 50 |  |  |  |  |  | < 50 | < 50 |  | 
16 | C1C2C3CC4C2C2C1C3[C@H](NCC13C5C6C7C5C1C7C63)C42 (stereo not given in full) |  |  | < 50 | 6.90 |  | 5.20 | 5.32 |  |  | < 50 | 6.33 | 5.27

Continued, values first:

Row | inhibition [1] [%] | inhibition [2] [%] | inhibition [3] [%] | pKi [4] | inhibition [5] [%] | pKi [6] | pKi [7] | inhibition [8] [%] | inhibition [9] [%] | inhibition [10] [%] | pKi [11] | pKi [12] | Compound
17 | < 50 | < 50 | < 50 |  |  |  |  | < 50 | < 50 | < 50 |  |  | CN(CCc1ccccn1)[C@H]1C2C3CC4C2C(=O)C2C4C3C21 (stereo not given in full)
18 | < 50 | < 50 | < 50 |  |  |  |  | < 50 | < 50 | < 50 |  |  | CN(Cc1cccnc1)[C@H]1C2C3CC4C5C3CC2C5C41 (stereo not given in full)
19 | < 50 | < 50 | < 50 |  |  |  |  |  |  | < 50 | 5.98 |  | CN(Cc1ccccc1)[C@H]1C2C3CC4C2C(=O)C2C4C3C21 (stereo not given in full)
20 | < 50 | < 50 | < 50 |  |  |  | < 5.00 |  |  | < 50 |  |  | CN(CCc1cccc(F)c1)[C@H]1C2C3CC4C2C(=O)C2C4C3C21 (stereo not given in full)
21 | < 50 | < 50 |  |  | < 50 |  |  |  | < 50 | < 50 |  |  | COc1ccc(CN(C)[C@H]2C3C4CC5C3C(=O)C3C5C4C32)cc1OC (stereo not given in full)
22 | < 50 | < 50 |  |  |  |  |  |  |  | < 50 | 5.89 |  | CN(CCCc1cccc(F)c1)[C@H]1C2C3CC4C2C(=O)C2C4C3C21 (stereo not given in full)
23 | < 50 | < 50 | < 50 |  |  |  |  |  | < 50 | < 50 |  |  | CN(Cc1cccnc1)[C@H]1C2C3CC4C2C(=O)C2C4C3C21 (stereo not given in full)
24 | < 50 | < 50 | < 50 | 5.34 |  |  |  |  |  | < 50 | 5.75 |  | CN(Cc1cccc(F)c1)[C@H]1C2C3CC4C2C(=O)C2C4C3C21 (stereo not given in full)
25 | < 50 | < 50 | < 50 | 5.89 |  | < 5.00 |  |  |  | < 50 |  |  | CN(CCc1ccccc1)[C@H]1C2C3CC4C2C(=O)C2C4C3C21 (stereo not given in full)
